We go through three molecules from paper PMC9867436, “Drug Repurposing to Inhibit Histamine N-Methyl Transferase” (Molecules, 2023).

The assay concerns the target T1, Histamine N-Methyltransferase (HNMT) (Homo sapiens, UniProt P50135).
T1 construct: Recombinant Human Histamine N-Methyltransferase (rhHNMT, R&D Systems 7637-MT)
In words: fluorescence assay of histamine methylation by recombinant HNMT (ex […]/em […] nm). The format is biochemical.

pIC50: −log10 of the molar value. Like-named read-outs stand apart in the source and are kept apart here.

T1 sequence (P50135 whole entry): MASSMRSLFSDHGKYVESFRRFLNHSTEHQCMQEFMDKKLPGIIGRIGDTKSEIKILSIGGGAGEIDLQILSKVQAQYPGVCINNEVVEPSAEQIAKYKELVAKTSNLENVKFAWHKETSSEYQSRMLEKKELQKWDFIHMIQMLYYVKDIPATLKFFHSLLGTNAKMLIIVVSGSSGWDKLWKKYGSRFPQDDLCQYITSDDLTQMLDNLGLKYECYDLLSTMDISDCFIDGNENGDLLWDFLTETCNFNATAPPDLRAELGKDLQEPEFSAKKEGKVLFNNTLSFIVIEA

A word on the pIC50: it is the IC50 on a negative log10 scale, so that one unit is a factor of ten. `CN1C[C@H](C(=O)N[C@]2(C)O[C@@]3(O)[C@@H]4CCCN4C(=O)[C@H](Cc4ccccc4)N3C2=O)C[C@@H]2c3cccc4[nH]cc(c34)C[C@H]21` [dihydroergotamine]: the pIC50 was 4.14. With `Cc1nc(N)nc(N)c1-c1ccc(Cl)c(Cl)c1` [metoprine, reference compound], the pIC50 (read-out: IC50) was 7.18. Take `N#Cc1ccc2[nH]cc(CCCCN3CCN(c4ccc5oc(C(N)=O)cc5c4)CC3)c2c1` [vilazodone]: where the note is “read-out: IC50”, the pIC50 is 4.35.
